A word on the IC50: it is the concentration that inhibits the measured activity by half.

Experiment [1] has as its system cumulus-ovum complexes (cumulus expansion). Nature of the experiment: Cumulus expansion test in vitro. The format is cell-based, mice. To be noted: competing with natural EP2 receptor agonist PGE2. As to the method:
In immature female mice (strain: CD1 (ICR) von Charles River), folliculogenesis is induced at an age of 14-18 days by a single administration (intraperitoneal) of 10 I.U. of PMSG (Pregnant Mare Serum Gonadotropin; Sigma G-4877, Lot 68H0909). 47-50 hours after the injection, the ovaries are removed and the cumulus-ovum complexes removed. At this stage, the cumulus complex is not yet expanded.
The cumulus-ovum complexes are now incubated for 20-24 hours with prostaglandin E2 (PGE2) (1 μM), vehicle control (ethanol) or test substances. Medium: alpha-MEM medium with 0.1 mM IBMX, pyruvate (0.23 mM) glutamine (2 mM), pen/strep 100 IU/ml pen. and 100 μg/ml strep.) and HSA (8 mg/ml)). The cumulus expansion is then assessed by classification into four stages (after Vanderhyden et al. Dev Biol. 1990 August; 140(2):307-317).

Experiment [2] deals with T1, EP2 subtype of the human PGE2 receptor (Homo sapiens, UniProt P43116).
T1 construct: host or cells: cells in a cell culture plate
Nature of the experiment: cAMP antagonism test (test for antagonism in the presence of PGE2). It is filed as cell-based. To be noted: in presence of agonist PGE2. The source says:
(§1) The binding of PGE2 to the EP2 subtype of the human PGE2 receptor induces the activation of membrane adenylate cyclases and leads to the formation of cAMP. In the presence of the phosphodiesterase inhibitor IBMX, the cAMP accumulated through this stimulation and released by cell lysis is used in a competitive detection process. In this test, the cAMP in the lysate competes with cAMP-XL665 for the binding of an Eu cryptate-labeled anti-cAMP antibody. Here in the absence of cellular cAMP a maximal signal is produced, which is due to the coupling of this antibody to the cAMP-XL665 molecule. As a result, after excitation at 337 nm, a long-lasting emission signal at 665 nm (and at 620 nm) based on FRET (fluorescence resonance energy transfer) is produced. Both signals are measured in a suitable measuring instrument with time delay, i.e. after the background fluorescence has died away.
The substance solutions (0.75 μl) which contain 30% DMSO are placed in a test plate and are dissolved in 16 μl of a KRSB+IBMX stimulation solution (1× cancer Ringer bicarbonate buffer; Sigma-Aldrich # K-4002; including 750 μM 3-isobutyl-1-methylxanthine Sigma-Aldrich # 1-7018), then 15 μl of this are transferred into a media-free cell culture plate which has been washed with KRSB shortly beforehand.
After a 30-minute preincubation at room temperature (RT), 5 μl of a 4×PGE2 solution (11 nM) are added and incubated in the presence of the agonist for a further 60 mins at RT (volume: ˜20 μl), before the reaction is then stopped by addition of 5 μl of lysis buffer and the mixture is incubated for a further 20 mins at RT (volume: ˜25 μl). The cell lysate is then transferred onto an assay plate and assayed in accordance with the manufacturer's instructions (cyclic AMP kit Cisbio International # 62AMPPEC).

Experiment [3] concerns the target T1, EP2 subtype of the human PGE2 receptor. Nature of the experiment: cellular agonism test (cAMP). It is filed as cell-based.
Text: as §1
The substance solutions (0.75 μl) placed in a test plate and 30% DMSO are dissolved in 16 μl of a KRSB+IBMX stimulation solution (1× cancer Ringer bicarbonate buffer; Sigma-Aldrich # K-4002; including 750 μM 3-isobutyl-1-methylxanthine Sigma-Aldrich # 1-7018), then 15 μl of this are transferred into a media-free cell culture plate which has been washed with KRSB shortly beforehand. […]

T1 sequence (P43116 whole entry): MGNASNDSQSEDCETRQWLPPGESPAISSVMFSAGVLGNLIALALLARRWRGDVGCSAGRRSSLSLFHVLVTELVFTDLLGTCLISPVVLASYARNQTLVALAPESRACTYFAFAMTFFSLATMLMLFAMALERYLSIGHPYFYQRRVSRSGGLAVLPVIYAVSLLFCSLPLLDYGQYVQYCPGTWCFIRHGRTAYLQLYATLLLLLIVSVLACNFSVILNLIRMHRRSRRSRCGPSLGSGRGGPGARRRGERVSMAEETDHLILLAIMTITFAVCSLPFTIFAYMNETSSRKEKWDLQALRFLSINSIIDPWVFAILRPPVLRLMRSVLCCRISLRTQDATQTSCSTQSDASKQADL

With `CC(C)Oc1ccc2c(=O)c3cc(C(=O)O)ccc3oc2c1` [AH 6809, reference compound], the “suppression of the expansion of the cumulus” value in experiment [1] (at a concentration of 100-200 μM) is listed as “ca. 30%”.

Regarding `CSc1ccc(NC(=S)NC2CCN(c3ccnc4cc(Cl)ccc34)CC2)cc1` [Example 1, 1-[1-(7-chloro-quinolin-4-yl)-piperidin-4-yl]-3-(4-methylsulfanyl-phenyl)-thiourea], the IC50 in experiment [2] turned out to be 2.7 µM.

For the compound `S=C(Nc1ccccc1Br)NC1CCN(c2ccnc3cc(Cl)ccc23)CC1` [Example 8, 1-(2-bromo-phenyl)-3-(1-(7-chloro-quinolin-4-yl)-piperidin-4-yl)-thiourea], in experiment [2], the IC50 is 3.8 µM. In addition, in experiment [3], the “activity in the cellular agonism test” value is on record as “no inhibition”. Moreover, the “suppression of cumulus expansion” value in experiment [1] (at a 10 times lower concentration than AH 6809 (100-200 μM)) is 20%.

With `CSc1ccccc1NC(=S)NC1CCN(c2ccnc3cc(Cl)ccc23)CC1` [Example 14, 1-(1-(7-chloro-quinolin-4-yl)-piperidin-4-yl)-3-(2-methylsulfanyl-phenyl)-thiourea], the IC50 in experiment [2] was determined as 3.4 µM.

(Values after patent US20080125435A1, “1-(Het)aryl-3-[hetaryl-piperidin-4-yl]-thioureas as modulators of the EP2 receptor” (priority 2006, published 2008).)
